Data on twelve compounds can be found in patent US20260116921A1, “PEPTIDE INHIBITORS OF INTERLEUKIN-23 RECEPTOR AND THEIR USE TO TREAT INFLAMMATORY DISEASES” (priority 2018, published 2026).

The nature of data set [1]: in vitro. Conditions: both, SD, rat, plasma (EDTA).
A short description of data set [2]: in vitro. More on the design: half-life: dose or concentration left out as unconfirmed. Conditions: simulated intestinal fluid (SIF) with pancreatin, pH 6.8, 37° C., § matrix is 100 fold dilution of standard SIF concentration, read-out: SIF t½ (converted). It is filed as in vitro ADME.
A short description of data set [3]: in vitro. Conditions: human, 20% fecal homogenate (supernatant), anaerobic, pH 6.8.
In another data set the target is T1, IL-23R (Homo sapiens, UniProt Q5VWK5).
T1 sequence (Q5VWK5 24-629): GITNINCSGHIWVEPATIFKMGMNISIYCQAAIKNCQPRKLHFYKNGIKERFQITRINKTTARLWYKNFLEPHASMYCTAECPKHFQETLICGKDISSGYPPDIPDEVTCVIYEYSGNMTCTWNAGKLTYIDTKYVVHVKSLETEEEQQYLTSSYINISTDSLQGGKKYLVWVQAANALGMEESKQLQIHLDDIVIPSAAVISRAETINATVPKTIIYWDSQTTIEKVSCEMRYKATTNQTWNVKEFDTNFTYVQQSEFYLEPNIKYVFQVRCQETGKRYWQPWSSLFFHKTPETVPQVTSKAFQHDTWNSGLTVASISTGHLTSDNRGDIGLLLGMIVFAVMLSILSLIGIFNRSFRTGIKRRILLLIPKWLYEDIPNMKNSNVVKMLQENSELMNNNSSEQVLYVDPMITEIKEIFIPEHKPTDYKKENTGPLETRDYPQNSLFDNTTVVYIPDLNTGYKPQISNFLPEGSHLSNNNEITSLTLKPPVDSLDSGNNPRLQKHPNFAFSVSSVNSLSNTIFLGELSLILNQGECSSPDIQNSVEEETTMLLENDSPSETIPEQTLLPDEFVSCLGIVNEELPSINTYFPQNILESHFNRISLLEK
Description: DB cells IL23R pSTAT3 cell assay (pStat3 HTRF). Format: cell-based. Conditions: Table E3; DB cells, IL-23 0.5 nM, 30 minutes at 37° C.; read-out: pStat3 HTRF (IC50). The procedure, abridged:
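HTRF readout of lysate pSTAT3 (Tyr705) after two-plate processing. Peptide dilution series co-incubated with IL-23 (0.5 nM final) on 5×10E5 IL-23R-expressing DB cells per well, 30 min, 37 °C.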

Data set [4] can be described thus: in vitro. Conditions: cynomolgus monkey, 20% fecal homogenate (supernatant), anaerobic, pH 6.8.

Numbered stars: 1 amine (or outer) side, 2 acyl side, 3 side chain; on linkers, the order of the positions; unused ones are H or OH. Bridge positions count the residues as written; N and C are the ends. Square brackets hold non-standard residues; d marks the D form. Peptide text beside a SMILES is read from it. Trp(7-Me) = Cc1cccc2c(C[C@H](N)C(=O)O)c[nH]c12; Abu(4-yl) = O=C([C@H](CC[*:3])N[*:1])[*:2]; 2Nal = N[C@@H](Cc1ccc2ccccc2c1)C(=O)O; AEF = NCCOc1ccc(C[C@H](N)C(=O)O)cc1; Cit = NC(=O)NCCC[C@H](N)C(=O)O; Pen = CC(C)(S)[C@H](N)C(=O)O; αMeK = C[C@](N)(CCCCN)C(=O)O Some results are limits rather than exact numbers.

With `CC(=O)NCCCC[C@@H]1NC(=O)[C@H](Cc2c[nH]c3c(C)cccc23)NC(=O)[C@H]([C@@H](C)O)NC(=O)[C@H](CC(N)=O)NC(=O)[C@@H](NC(C)=O)C(C)(C)SSC(C)(C)[C@@H](C(=O)N[C@@H](Cc2ccc(OCCN)cc2)C(=O)N[C@@H](Cc2ccc3ccccc3c2)C(=O)N[C@@](C)(CCCCN)C(=O)N[C@@H](CCCCNC(C)=O)C(=O)N[C@@H](CC(N)=O)C(=O)N[C@@H](CCCNC(=N)N)C(N)=O)NC1=O` [compound 243], the results for the half-life at 20 μM in “in vitro [1]” and in the data set “in vitro [3]” were 21 h and 1 h, respectively. Further, in the data set “in vitro [2]”, the half-life was less than 1 h. The IC50 on IL-23R was in the range of 1 to 10 nM.
On to `CC(=O)NCCCC[C@H](NC(=O)[C@](C)(CCCCN)NC(=O)[C@H](Cc1ccc2ccccc2c1)NC(=O)[C@H](Cc1ccc(OCCN)cc1)NC(=O)[C@H]1NC(=O)[C@H](CCCCNC(=O)CC(C)C)NC(=O)[C@H](Cc2c[nH]c3c(C)cccc23)NC(=O)[C@H]([C@@H](C)O)NC(=O)[C@H](CC(N)=O)NC(=O)[C@@H](NC(C)=O)C(C)(C)SSC1(C)C)C(=O)N[C@@H](CC(N)=O)C(=O)N[C@H](CC(C)C)C(N)=O` [compound 315], for which the half-life in “in vitro [2]” is 9 h. Also, the IC50 on IL-23R lay in the range of 1 to 10 nM.
Regarding `CC(=O)N[C@H]1CCSC[C@@H](C(=O)N[C@@H](Cc2ccc(OCCN)cc2)C(=O)N[C@@H](Cc2ccc3ccccc3c2)C(=O)NC2(C(=O)N[C@@H](CCC(=O)O)C(=O)N[C@@H](CC(N)=O)C(=O)NCCC(N)=O)CCOCC2)NC(=O)[C@H](CCC(N)=O)NC(=O)[C@H](Cc2c[nH]c3c(C)cccc23)NC(=O)[C@H]([C@@H](C)O)NC(=O)[C@H](CCC(N)=O)NC1=O` [compound 204], the half-life in the data set “in vitro [2]” is 19 h. For the same compound, the half-life at 20 μM in “in vitro [3]” is 1 h; in “in vitro [4]”, 5 h. The IC50 on IL-23R was in the range of 1 to 10 nM.
For `CC(=O)NCCCC[C@H](NC(=O)[C@](C)(CCCCN)NC(=O)[C@H](Cc1ccc2ccccc2c1)NC(=O)[C@H](Cc1ccc(OCCN)cc1)NC(=O)[C@H]1NC(=O)[C@H](CCCCNC(=O)CN)NC(=O)[C@H](Cc2c[nH]c3c(C)cccc23)NC(=O)[C@H]([C@@H](C)O)NC(=O)[C@H](CC(N)=O)NC(=O)[C@@H](NC(C)=O)C(C)(C)SSC1(C)C)C(=O)N[C@@H](CC(N)=O)C(=O)N[C@H](CC(C)C)C(N)=O` [compound 320], the half-life in “in vitro [2]” was 12 h. Besides, the IC50 at IL-23R was less than 1 nM.
On the same counts, the results for `CC(=O)NCCCC[C@H](NC(=O)[C@](C)(CCCCN)NC(=O)[C@H](Cc1ccc2ccccc2c1)NC(=O)[C@H](Cc1ccc(OCCN)cc1)NC(=O)[C@H]1NC(=O)[C@H](CCCCNC(=O)C2CCCCC2)NC(=O)[C@H](Cc2c[nH]c3c(C)cccc23)NC(=O)[C@H]([C@@H](C)O)NC(=O)[C@H](CC(N)=O)NC(=O)[C@@H](NC(C)=O)C(C)(C)SSC1(C)C)C(=O)N[C@@H](CC(N)=O)C(=O)N[C@H](CC(C)C)C(N)=O` [compound 316] are 7 h and 1 to 10 nM.
For `CC(=O)NCCCC[C@H](NC(=O)[C@](C)(CCCCN)NC(=O)[C@H](Cc1ccc2ccccc2c1)NC(=O)[C@H](Cc1ccc(OCCN)cc1)NC(=O)[C@H]1NC(=O)[C@H](CCCCNC(=O)CCN)NC(=O)[C@H](Cc2c[nH]c3c(C)cccc23)NC(=O)[C@H]([C@@H](C)O)NC(=O)[C@H](CC(N)=O)NC(=O)[C@@H](NC(C)=O)C(C)(C)SSC1(C)C)C(=O)N[C@@H](CC(N)=O)C(=O)N[C@H](CC(C)C)C(N)=O` [compound 321], in that order: 3 h and 1 to 10 nM.
Consider `CC(=O)NCCCC[C@H](NC(=O)[C@](C)(CCCCN)NC(=O)[C@H](Cc1ccc2ccccc2c1)NC(=O)[C@H](Cc1ccc(OCCN)cc1)NC(=O)[C@H]1NC(=O)[C@H](CCC(N)=O)NC(=O)[C@H](Cc2c[nH]c3c(C)cccc23)NC(=O)[C@H]([C@@H](C)O)NC(=O)[C@H](CC(N)=O)NC(=O)[C@@H](NC(C)=O)C(C)(C)SSC1(C)C)C(=O)N[C@@H](CC(C)C)C(=O)NCCC(N)=O` [compound 269], for which the half-life at 20 μM in “in vitro [1]”, in “in vitro [3]” and in the data set “in vitro [4]” was more than 24 h each time. Also, the IC50 at IL-23R was 1 to 10 nM.
Take `CC(=O)NCCCC[C@@H]1NC(=O)[C@H](Cc2c[nH]c3c(C)cccc23)NC(=O)[C@H]([C@@H](C)O)NC(=O)[C@H](CC(N)=O)NC(=O)[C@@H](NC(C)=O)C(C)(C)SSC(C)(C)[C@@H](C(=O)N[C@@H](Cc2ccc(OCCN)cc2)C(=O)N[C@@H](Cc2ccc3ccccc3c2)C(=O)N[C@@](C)(CCCCN)C(=O)N[C@@H](CCCCNC(C)=O)C(=O)N[C@@H](CC(N)=O)C(=O)N[C@@H](CC(C)C)C(N)=O)NC1=O` [compound 244]: the half-life at 20 μM was more than 24 h in “in vitro [1]” and 19 h in “in vitro [3]”. Moreover, in “in vitro [2]”, the half-life is 1 h. Further, on IL-23R, the IC50 was in the range of 1 to 10 nM.
For `CC(=O)NCCCC[C@H](NC(=O)[C@](C)(CCCCN)NC(=O)[C@H](Cc1ccc2ccccc2c1)NC(=O)[C@H](Cc1ccc(OCCN)cc1)NC(=O)[C@H]1NC(=O)[C@H](CCCNC(N)=O)NC(=O)[C@H](Cc2c[nH]c3c(C)cccc23)NC(=O)[C@H]([C@@H](C)O)NC(=O)[C@H](CC(N)=O)NC(=O)[C@@H](NC(C)=O)C(C)(C)SSC1(C)C)C(=O)N[C@@H](CC(N)=O)C(=O)N[C@@H](Cc1ccc(O)cc1)C(N)=O` [compound 266] (Ac-[Pen]NT[Trp(7-Me)][Cit][Pen][AEF][2Nal][αMeK]K(Ac)NY-NH2; disulfide 1-6), the half-life at 20 μM is more than 24 h in the data set “in vitro [1]”, 16 h in the data set “in vitro [3]” and 7 h in “in vitro [4]”. For the same compound, the IC50 on IL-23R lay in the range of 1 to 10 nM.
As for `CC(=O)NCCCC[C@@H]1NC(=O)[C@H](Cc2c[nH]c3c(C)cccc23)NC(=O)[C@H]([C@@H](C)O)NC(=O)[C@H](CCC(N)=O)NC(=O)[C@@H](NC(=O)[C@@H](CCCNC(=N)N)NC(C)=O)CCSC[C@@H](C(=O)N[C@@H](Cc2ccc(OCCN)cc2)C(=O)N[C@@H](Cc2ccc3ccccc3c2)C(=O)N[C@@](C)(CCCCN)C(=O)N[C@@H](CCCCNC(C)=O)C(=O)N[C@@H](CC(N)=O)C(=O)N[C@H](CCCCN)C(N)=O)NC1=O` [compound 324] (Ac-[dR][Abu(4-yl)]QT[Trp(7-Me)]K(Ac)C[AEF][2Nal][αMeK]K(Ac)N[dK]-NH2; thioether 2-7), in the data set “in vitro [2]”, the half-life is 1 h. For the same compound, the IC50 at IL-23R fell in the range of 10 to 100 nM.
Consider `CC(=O)NCCCC[C@H](NC(=O)[C@](C)(CCCCN)NC(=O)[C@H](Cc1ccc2ccccc2c1)NC(=O)[C@H](Cc1ccc(OCCN)cc1)NC(=O)[C@H]1NC(=O)[C@H](CCC(N)=O)NC(=O)[C@H](Cc2c[nH]c3c(C)cccc23)NC(=O)[C@H]([C@@H](C)O)NC(=O)[C@H](CCC(N)=O)NC(=O)[C@@H](NC(C)=O)C(C)(C)SSC1(C)C)C(=O)N[C@@H](CC(N)=O)C(=O)NCCC(N)=O` [compound 237], for which the figures for the half-life at 20 μM in the data set “in vitro [1]”, in “in vitro [3]” and in the data set “in vitro [4]” were more than 24 h, more than 24 h and 6 h, respectively. On IL-23R, the IC50 was in the range of 1 to 10 nM.
For `CC(=O)NCCCC[C@H](NC(=O)[C@](C)(CCCCN)NC(=O)[C@H](Cc1ccc2ccccc2c1)NC(=O)[C@H](Cc1ccc(OCCN)cc1)NC(=O)[C@H]1NC(=O)[C@H](CCCNC(N)=O)NC(=O)[C@H](Cc2c[nH]c3c(C)cccc23)NC(=O)[C@H]([C@@H](C)O)NC(=O)[C@H](CC(N)=O)NC(=O)[C@@H](NC(C)=O)C(C)(C)SSC1(C)C)C(=O)N[C@@H](CC(N)=O)C(=O)N[C@H](C(N)=O)[C@@H](C)O` [compound 262] (Ac-[Pen]NT[Trp(7-Me)][Cit][Pen][AEF][2Nal][αMeK]K(Ac)NT-NH2; disulfide 1-6), the half-life at 20 μM in “in vitro [1]” is more than 24 h; in the data set “in vitro [3]”, 15 h; in the data set “in vitro [4]” it was 3 h. For the same compound, the IC50 on IL-23R lay within 1 to 10 nM.
